# From patent US6472348B1, “Pyridone derivatives and herbicides” (Kumiai Chemical Industry Co., Ltd., priority 1996, dated 2002)
# What was measured:
# Assay type in all cases: in vivo
# [1] = test system: Diaitaria ciliaris (Di); assay: Test Example 4: crop plant selectivity by upland field soil treatment (cotton), herbicidal effects; conditions: evaluated 21st day after application
# Protocol: (§1) (Test on Crop Plant Selectivity by Upland Field Soil Treatment)
# In a plastic pot (surface area: 600 cm^2) filled with sand, cotton (Go), Diaitaria ciliaris (Di), green foxtail (Se), pale smartweed (Po), slender amaranth (Am), common lambsquarters (Ch) and China jute (Ab) were sown and covered with soil. […] The plants were then cultured in a green house, and the evaluation of the herbicidal effects and phytotoxicity was conducted on the 21st day after the application in accordance with the standards as identified in Table 47. Symbol—represents “not tested”.
# [2] = test system: common lambsquarters (Ch); assay: Test Example 2: herbicidal effects by upland field soil treatment; conditions: 100 g of the active ingredient per 10 ares, evaluated on the 21st day after application;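 further: grade of growth control; 5 = at least 90%; 4 = 70 to 90%; 3 = 50 to 70%; 2 = 30 to 50%; 1 = 10 to 30%; 0 = under 10%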
# From the text: (§2) (Test on Herbicidal Effects by Upland Field Soil Treatment)
# [3] = test system: slender amaranth (Am); assay: as above; conditions: 100 g of the active ingredient per 10 ares, evaluated on the 21st day after application
# From the text: as §2
# [4] = test system: barnyardgrass (Ec); assay: as above; conditions: 100 g of the active ingredient per 10 ares, evaluated on the 21st day after application
# From the text: as §2
# [5] = test system: Digitaria ciliaris (Di); assay: as above; conditions: 100 g of the active ingredient per 10 ares, evaluated on the 21st day after application;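 further: grade of growth control; 5 = at least 90%; 4 = 70 to 90%; 3 = 50 to 70%; 2 = 30 to 50%; 1 = 10 to 30%; 0 = under 10%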
# From the text: as §2
# [6] = test system: pale smartweed (Po); assay: as above; conditions: 100 g of the active ingredient per 10 ares, evaluated on the 21st day after application
# From the text: as §2
# [7] = test system: rice flatsedge (Ci); assay: as above; conditions: 100 g of the active ingredient per 10 ares, evaluated on the 21st day after application
# From the text: as §2
# [8] = test system: Diaitaria ciliaris (Di); assay: Test Example 6: crop plant selectivity by upland field soil treatment (soybean), herbicidal effects; conditions: 21st day after application
# Protocol: as §1
# (§3) In a plastic pot (surface area: 600 cm^2) filled with sand, soybean (Gl), Diaitaria ciliaris (Di), green foxtail (Se), Johnsongrass (So), pale smartweed (Po), slender amaranth (Am), common lambsquarters (Ch) and China jute (Ab) were sown and covered with soil. […] The plants were then cultured in a green house, and the evaluation of the herbicidal effects and phytotoxicity was conducted on the 21st day after the application in accordance with the standards as identified in Table 47. Symbol—represents “not tested”.
# [9] = test system: Johnsongrass (So); assay: as above; conditions: 21st day after application
# Protocol: as §1, §3
# [10] = test system: Diaitaria ciliaris (Di); assay: Test Example 5: crop plant selectivity by upland field soil treatment (wheat), herbicidal effects; conditions: dose 1.6 g ai/10a, 21st day after application
# Protocol: as §1
# In a plastic pot (surface area: 600 cm^2) filled with sand, wheat (Tr), Diaitaria ciliaris (Di), green foxtail (Se), pale smartweed (Po), slender amaranth (Am), common lambsquarters (Ch) and China jute (Ab) were sown and covered with soil. […] The plants were then cultured in a green house, and the evaluation of the herbicidal effects and phytotoxicity was conducted on the 21st day after the application in accordance with the standards as identified in Table 47. Symbol—represents “not tested”.
# [11] = test system: soybean (Gl); assay: Test Example 6: crop plant selectivity by upland field soil treatment (soybean), phytotoxicity; design: scale not given here; conditions: 21st day after application
# Summary of the method: (§4)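 Greenhouse pot test with soil-applied compound after sowing soybean and weeds in sand; effects graded on day 21 after application.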
# [12] = test system: common lambsquarters (Ch); assay: Test Example 3: herbicidal effects by upland field foliage treatment; design: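 grade of growth control; 5 = at least 90%; 4 = 70 to 90%; 3 = 50 to 70%; 2 = 30 to 50%; 1 = 10 to 30%; 0 = under 10%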; conditions: 100 g active ingredient per 10 ares, evaluated 14th day after treatment
# Summary of the method: (§5)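 Two-week-old greenhouse seedlings, raised in sand-filled pots (120 cm^2) with seed covered by soil, receive a foliar application. Effects are then evaluated by standard grades 14 days later, plants remaining in the greenhouse meanwhile.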
# [13] = test system: slender amaranth (Am); assay: as above; design: scale not given here; conditions: 100 g active ingredient per 10 ares, evaluated 14th day after treatment
# Summary of the method: as §5
# [14] = test system: barnyardgrass (Ec); assay: as above; design: scale not given here; conditions: 100 g active ingredient per 10 ares, evaluated 14th day after treatment
# Summary of the method: as §5
# [15] = test system: Diaitaria ciliaris (Di); assay: as above; design: scale not given here; conditions: 100 g active ingredient per 10 ares, evaluated 14th day after treatment
# Summary of the method: as §5
# [16] = test system: pale smartweed (Po); assay: as above; design: scale not given here; conditions: 100 g active ingredient per 10 ares, evaluated 14th day after treatment
# Summary of the method: as §5
# [17] = test system: rice flatsedge (Ci); assay: as above; design: scale not given here; conditions: 100 g active ingredient per 10 ares, evaluated 14th day after treatment
# Summary of the method: as §5
# [18] = test system: wheat (Tr); assay: Test Example 5: crop plant selectivity by upland field soil treatment (wheat), phytotoxicity; design: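 grade of crop injury; 5 = at least 90%; 4 = 70 to 90%; 3 = 50 to 70%; 2 = 30 to 50%; 1 = 10 to 30%; 0 = under 10%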; conditions: dose 1.6 g ai/10a, 21st day after application
# Summary of the method: (§6)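 Pre-emergence soil treatment, sand-filled pots, seeds covered with soil; greenhouse culture; visual scoring of weed control and wheat injury at day 21 post-application.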
# [19] = test system: common lambsquarters (Ch); assay: Test Example 6: crop plant selectivity by upland field soil treatment (soybean), herbicidal effects; design: scale not given here; conditions: 21st day after application
# Summary of the method: as §4
# [20] = test system: slender amaranth (Am); assay: as above; design: scale not given here; conditions: 21st day after application
# Summary of the method: as §4
# [21] = test system: China jute (Ab); assay: as above; design: scale not given here; conditions: 21st day after application
# Summary of the method: as §4
# [22] = test system: green foxtail (Se); assay: as above; design: scale not given here; conditions: 21st day after application
# Summary of the method: as §4
# [23] = test system: pale smartweed (Po); assay: as above; design: scale not given here; conditions: 21st day after application
# Summary of the method: as §4
# [24] = test system: common lambsquarters (Ch); assay: Test Example 4: crop plant selectivity by upland field soil treatment (cotton), herbicidal effects; design: scale not given here; conditions: evaluated 21st day after application
# Summary of the method: (§7)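 Cotton and weeds (incl. China jute, pale smartweed, slender amaranth) sown in sand-filled pots and covered with soil, then soil-treated. Grown in greenhouse; herbicidal effect and cotton phytotoxicity scored on day 21 after application against a rating standard.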
# [25] = test system: slender amaranth (Am); assay: as above; design: scale not given here; conditions: evaluated 21st day after application
# Summary of the method: as §7
# [26] = test system: China jute (Ab); assay: as above; design: scale not given here; conditions: evaluated 21st day after application
# Summary of the method: as §7
# [27] = test system: green foxtail (Se); assay: as above; design: scale not given here; conditions: evaluated 21st day after application
# Summary of the method: as §7
# [28] = test system: pale smartweed (Po); assay: as above; design: scale not given here; conditions: evaluated 21st day after application
# Summary of the method: as §7
# [29] = test system: common lambsquarters (Ch); assay: Test Example 5: crop plant selectivity by upland field soil treatment (wheat), herbicidal effects; design: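 grade of growth control; 5 = at least 90%; 4 = 70 to 90%; 3 = 50 to 70%; 2 = 30 to 50%; 1 = 10 to 30%; 0 = under 10%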; conditions: dose 1.6 g ai/10a, 21st day after application
# Summary of the method: as §6
# [30] = test system: slender amaranth (Am); assay: as above; design: scale not given here; conditions: dose 1.6 g ai/10a, 21st day after application
# Summary of the method: as §6
# [31] = test system: China jute (Ab); assay: as above; design: scale not given here; conditions: dose 1.6 g ai/10a, 21st day after application
# Summary of the method: as §6
# [32] = test system: green foxtail (Se); assay: as above; design: scale not given here; conditions: dose 1.6 g ai/10a, 21st day after application
# Summary of the method: as §6
# [33] = test system: pale smartweed (Po); assay: as above; design: scale not given here; conditions: dose 1.6 g ai/10a, 21st day after application
# Summary of the method: as §6
# [34] = test system: bulrush (Sc); assay: Test Example 1: herbicidal effects by paddy field soil treatment; conditions: 100 g of the active ingredient per 10 ares, 21st day after the application, index 0-5 of Table 47;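 further: grade of growth control; 5 = at least 90%; 4 = 70 to 90%; 3 = 50 to 70%; 2 = 30 to 50%; 1 = 10 to 30%; 0 = under 10%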
# Summary of the method: (§8)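 Greenhouse pot test in flooded paddy soil, dosed at 100 g a.i. per 10 ares; effect scored on day 21.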
# [35] = test system: barnyardgrass (Ec); assay: as above; conditions: 100 g of the active ingredient per 10 ares, 21st day after the application, index 0-5 of Table 47
# Summary of the method: as §8
# [36] = test system: monochoria (Mo); assay: as above; conditions: 100 g of the active ingredient per 10 ares, 21st day after the application, index 0-5 of Table 47;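 further: grade of growth control; 5 = at least 90%; 4 = 70 to 90%; 3 = 50 to 70%; 2 = 30 to 50%; 1 = 10 to 30%; 0 = under 10%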
# Summary of the method: as §8
# [37] = test system: cotton (Go); assay: Test Example 4: crop plant selectivity by upland field soil treatment (cotton), phytotoxicity; design: scale not given here; conditions: evaluated 21st day after application
# Summary of the method: as §7
compound,measurement,setting,value
C=CCN1C(=O)COc2cc(F)c(-c3ccc(C(F)(F)F)n(C)c3=O)cc21 [Compound 2-7],Herbicidal effects Di,[1]; dose 1.6 g ai/10 a,5
same,Herbicidal effects Di,[1]; dose 6.3 g ai/10 a,5
same,Herbicidal effects Ch,[2],5
same,Herbicidal effects Am,[3],5
same,Herbicidal effects Ec,[4],5
same,Herbicidal effects Di,[5],5
same,Herbicidal effects Po,[6],5
same,Herbicidal effects Ci,[7],5
same,Herbicidal effects Di,[8]; dose 1.6 g ai/10a,5
same,Herbicidal effects Di,[8]; dose 6.3 g ai/10a,5
same,Herbicidal effects So,[9]; dose 1.6 g ai/10a,5
same,Herbicidal effects So,[9]; dose 6.3 g ai/10a,5
same,Herbicidal effects Di,[10],5
same,Phytotoxicity Gl,[11]; dose 1.6 g ai/10a,0
same,Phytotoxicity Gl,[11]; dose 6.3 g ai/10a,0
same,Herbicidal effects Ch,[12],5
same,Herbicidal effects Am,[13],5
same,Herbicidal effects Ec,[14],5
same,Herbicidal effects Di,[15],5
same,Herbicidal effects Po,[16],5
same,Herbicidal effects Ci,[17],5
same,Phytotoxicity Tr,[18],0
same,Herbicidal effects Ch,[19]; dose 1.6 g ai/10a,5
same,Herbicidal effects Ch,[19]; dose 6.3 g ai/10a,5
same,Herbicidal effects Am,[20]; dose 1.6 g ai/10a,5
same,Herbicidal effects Am,[20]; dose 6.3 g ai/10a,5
same,Herbicidal effects Ab,[21]; dose 1.6 g ai/10a,5
same,Herbicidal effects Ab,[21]; dose 6.3 g ai/10a,5
same,Herbicidal effects Se,[22]; dose 1.6 g ai/10a,5
same,Herbicidal effects Se,[22]; dose 6.3 g ai/10a,5
same,Herbicidal effects Po,[23]; dose 1.6 g ai/10a,5
same,Herbicidal effects Po,[23]; dose 6.3 g ai/10a,5
same,Herbicidal effects Ch,[24]; dose 1.6 g ai/10 a,4
same,Herbicidal effects Ch,[24]; dose 6.3 g ai/10 a,5
same,Herbicidal effects Am,[25]; dose 1.6 g ai/10 a,5
same,Herbicidal effects Am,[25]; dose 6.3 g ai/10 a,5
same,Herbicidal effects Ab,[26]; dose 1.6 g ai/10 a,5
same,Herbicidal effects Ab,[26]; dose 6.3 g ai/10 a,5
same,Herbicidal effects Se,[27]; dose 1.6 g ai/10 a,4
same,Herbicidal effects Se,[27]; dose 6.3 g ai/10 a,5
same,Herbicidal effects Po,[28]; dose 1.6 g ai/10 a,5
same,Herbicidal effects Po,[28]; dose 6.3 g ai/10 a,5
same,Herbicidal effects Ch,[29],4
same,Herbicidal effects Am,[30],5
same,Herbicidal effects Ab,[31],5
same,Herbicidal effects Se,[32],5
same,Herbicidal effects Po,[33],5
same,Herbicidal effects Sc,[34],5
same,Herbicidal effects Ec,[35],5
same,Herbicidal effects Mo,[36],5
same,Phytotoxicity Go,[37]; dose 1.6 g ai/10 a,0
same,Phytotoxicity Go,[37]; dose 6.3 g ai/10 a,1
